From US20210268062A1, “INFLAMMATORY SKIN DISORDER TREATMENT” (NOVAPEP PTY LTD, priority 2018, published 2021)

What was measured:
p-AKT = p-AKT ELISA in AE.Hy926 cells treated with PAR1 peptide and/or thrombin; type: cell-based, human; parameters: pAKT compared to adding thrombin alone: dose or concentration left out as unconfirmed
Description: AE.Hy926 cells (ATCC® CRL-2922′), the human umbilical vein cell line, established by fusing primary human umbilical vein cells with a thioguanine-resistant clone of A549 by exposure to polyethylene glycol (PEG), were cultured in Dulbecco's Modified Eagle's Medium (DMEM, high glucose) containing 10% fetal bovine serum (FBS) in 75 sq cm flasks. When cells reached confluence, they were trypsinzed and seeded into 48 well plates at 1×10^4 viable cells/well for 2 days to reach complete confluency. Before treatment, cells were preincubated with DMEM medium (no FBS) for 2 hrs, then switched to fresh DMEM and treated with: • PAR1 12mer peptide (shown on graphs as PAR1) (or scrambled control (SC) of PAR1 peptide) • thrombin
either alone or at different combinations for 1 hr. After treatment, media were discarded and 100 μl lysis buffer was added to each wells and cell lysates were collected and stored in −40° C. for ELISA.
Human p-GSK and p-AKT were measured using ELISA Dueset kits (R&D Systems) according to manufacturers' instructions.

Akt = experiment: Induction of Akt activation in keratinocytes (phosphorylation of Ser473); type: cell-based; settings: with PAR-1 inhibitor
Description: Briefly, cells are washed three times with PBS and lysed with lysis buffer (0.15 M NaCl, 0.01 mM PMSF, 1% NP-40, 0.02 M Tris, 6 M urea/H2O). Cell lysates are centrifuged at 10,000 g for 15 minutes and supernatants are separated by 10% sodium-dodecyl-sulphate polyacrylamide-gel electrophoresis (SDS-PAGE) and transferred to a PDVF membrane. The primary antibodies used are as follows against pan or phospho specific forms of Akt, GSK3β, ERK1/2. Immunoreactivity is detected by using the ECL detection system (Amersham Biosciences, Buckinghamshire, UK). Anti-human (3-actin (Sigma-Aldrich) antibody is included to normalize for unequal loading. Protein band intensity is evaluated by densitometry by ImageQuant™ LAS 4000 (GE Healthcare Life Sciences).
To confirm activation of Akt by TR47, Akt-mediated inactivation of GSK3β via phosphorylation at Ser9 is determined. GSK3β is a well-known downstream substrate for Akt.

## NPNDKYEPFWED (listed as Homo sapiens) [PAR1 peptide, PAR1 12mer peptide]
p-AKT; PAR1 peptide added 15 mins before or after thrombin, FIG. 8B
  Akt activity: enhance the Akt activity
p-AKT; PAR1 peptide, after 1 hour, AE.Hy926 cells
  activation of Akt as determined by phosphorylation of Ser473: induced robust activation of Akt
p-AKT; higher concentrations, eg 10 nM thrombin in the presence of peptide
  pAKT: significantly enhanced pAKT
p-AKT; lower doses of thrombin and PAR1 peptide added together simultaneously, FIG. 8A
  pAKT compared to adding thrombin alone: increased pAKT

## CC(C)c1ccc(Cn2ccc3c4c(N)nc(NC5CC5)nc4ccc32)cc1 [SCH79797]
Akt
  dependence of Akt activation on PAR-1: activation of Akt is dependent on PAR-1

## thrombin
p-AKT; thrombin alone at 0.1 and 0.25 nM, FIG. 8A
  phosphorylation of AKT: inhibited phosphorylation of AKT
